# Reference: US20090118332A1, “Therapeutic Agents - 551” (AstraZeneca AB, priority 2006, published 2009)
# Target: T1, human Fatty Acid Synthase (Homo sapiens, UniProt P49327)
# T1 construct: made in house
# Assay: Human FAS enzyme assay (decrease in NADPH fluorescence)
# Assay type: biochemical
# Conditions: FAS enzyme assay, IC50 from fitted sigmoid curves
# Summary of the method: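 In-house human FAS was preincubated with compound and NADPH for 15 min at room temperature in 0.1 M Tris pH 7.5 with EDTA, glutathione and BSA. Malonyl CoA and acetyl CoA (500 μM and 150 μM in the added mix) were then added for 60 min. IC50 came from time-zero-subtracted NADPH fluorescence (340/460 nm).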
# T1 sequence (P49327 whole entry): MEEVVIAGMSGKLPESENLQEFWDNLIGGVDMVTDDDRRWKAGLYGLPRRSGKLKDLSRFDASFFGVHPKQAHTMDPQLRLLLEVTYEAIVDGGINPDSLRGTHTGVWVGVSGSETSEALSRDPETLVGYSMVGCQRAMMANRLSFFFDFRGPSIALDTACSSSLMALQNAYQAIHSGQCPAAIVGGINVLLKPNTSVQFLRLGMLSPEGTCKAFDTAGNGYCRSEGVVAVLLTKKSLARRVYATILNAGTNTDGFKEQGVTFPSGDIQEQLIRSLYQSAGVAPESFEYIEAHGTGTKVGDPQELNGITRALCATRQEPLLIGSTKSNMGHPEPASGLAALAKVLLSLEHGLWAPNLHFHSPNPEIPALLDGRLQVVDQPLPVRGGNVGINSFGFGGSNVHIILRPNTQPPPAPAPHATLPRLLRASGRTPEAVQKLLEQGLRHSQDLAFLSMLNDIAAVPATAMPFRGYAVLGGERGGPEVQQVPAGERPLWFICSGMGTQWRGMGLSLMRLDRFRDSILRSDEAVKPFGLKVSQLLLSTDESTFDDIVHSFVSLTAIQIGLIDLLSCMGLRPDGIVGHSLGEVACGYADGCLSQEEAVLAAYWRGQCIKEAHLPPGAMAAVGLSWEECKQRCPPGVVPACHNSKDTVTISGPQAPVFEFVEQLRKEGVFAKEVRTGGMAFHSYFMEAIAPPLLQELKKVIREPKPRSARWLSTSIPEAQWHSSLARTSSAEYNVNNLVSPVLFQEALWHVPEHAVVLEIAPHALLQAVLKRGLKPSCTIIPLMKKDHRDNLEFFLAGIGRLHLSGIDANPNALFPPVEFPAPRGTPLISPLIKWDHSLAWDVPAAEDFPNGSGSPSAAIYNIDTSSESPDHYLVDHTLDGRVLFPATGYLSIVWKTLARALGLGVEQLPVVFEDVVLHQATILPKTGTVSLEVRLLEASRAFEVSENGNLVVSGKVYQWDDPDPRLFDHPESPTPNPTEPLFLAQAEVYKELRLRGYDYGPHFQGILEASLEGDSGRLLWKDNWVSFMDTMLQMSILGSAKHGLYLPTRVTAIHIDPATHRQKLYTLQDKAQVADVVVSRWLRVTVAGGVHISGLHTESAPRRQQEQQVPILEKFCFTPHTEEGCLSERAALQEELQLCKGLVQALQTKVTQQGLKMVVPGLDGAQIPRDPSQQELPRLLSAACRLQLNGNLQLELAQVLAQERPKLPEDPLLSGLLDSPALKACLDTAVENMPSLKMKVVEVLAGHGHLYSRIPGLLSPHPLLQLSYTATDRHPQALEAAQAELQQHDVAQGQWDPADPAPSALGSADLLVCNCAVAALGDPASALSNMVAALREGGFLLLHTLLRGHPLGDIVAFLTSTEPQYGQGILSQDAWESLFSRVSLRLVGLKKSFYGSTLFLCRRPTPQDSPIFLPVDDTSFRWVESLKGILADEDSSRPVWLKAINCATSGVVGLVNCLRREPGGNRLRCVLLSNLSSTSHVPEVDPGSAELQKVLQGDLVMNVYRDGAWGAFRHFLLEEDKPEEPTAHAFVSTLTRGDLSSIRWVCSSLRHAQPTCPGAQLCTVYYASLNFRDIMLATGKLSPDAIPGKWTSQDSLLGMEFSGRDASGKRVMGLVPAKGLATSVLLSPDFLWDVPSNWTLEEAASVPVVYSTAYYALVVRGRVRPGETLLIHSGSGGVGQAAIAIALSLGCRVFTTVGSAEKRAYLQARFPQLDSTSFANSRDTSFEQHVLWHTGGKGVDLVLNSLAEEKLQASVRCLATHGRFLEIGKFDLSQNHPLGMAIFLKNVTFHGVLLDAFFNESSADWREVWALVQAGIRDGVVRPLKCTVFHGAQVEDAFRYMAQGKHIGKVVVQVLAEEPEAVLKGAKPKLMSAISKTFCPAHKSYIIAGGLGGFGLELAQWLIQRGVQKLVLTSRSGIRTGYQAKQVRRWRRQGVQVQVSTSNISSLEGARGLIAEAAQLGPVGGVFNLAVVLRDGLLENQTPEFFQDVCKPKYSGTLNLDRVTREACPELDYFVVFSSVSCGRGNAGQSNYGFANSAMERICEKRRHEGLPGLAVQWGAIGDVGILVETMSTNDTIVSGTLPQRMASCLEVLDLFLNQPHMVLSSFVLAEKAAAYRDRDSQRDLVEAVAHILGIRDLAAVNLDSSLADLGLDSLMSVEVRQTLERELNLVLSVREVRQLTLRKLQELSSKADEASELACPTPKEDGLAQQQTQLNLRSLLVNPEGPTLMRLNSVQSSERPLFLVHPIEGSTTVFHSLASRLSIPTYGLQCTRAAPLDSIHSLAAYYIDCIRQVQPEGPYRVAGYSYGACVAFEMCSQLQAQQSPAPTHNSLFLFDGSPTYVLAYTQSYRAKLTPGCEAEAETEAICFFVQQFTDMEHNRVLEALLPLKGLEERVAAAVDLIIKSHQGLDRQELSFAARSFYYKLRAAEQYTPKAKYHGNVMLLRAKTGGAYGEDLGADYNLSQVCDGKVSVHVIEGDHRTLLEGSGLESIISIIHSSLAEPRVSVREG
row,SMILES,"IC50, inhibition of human Fatty Acid Synthase"
1,COC(=O)[C@@H](NC(=O)Nc1cc(C(=O)N2CCC(c3ccc(C#N)cc3)CC2)ccc1C)C(C)C [Methyl (2S)-2-[[5-[4-(4-cyanophenyl)piperidine-1-carbonyl]-2-methylphenyl]carbamoylamino]-3-methylbutanoate],do not have IC50s in the range of about 0.001 μM to about 30 μM
2,COC(=O)[C@H](CCc1nnn[nH]1)NC(=O)Nc1cc(C(=O)N2CCC(c3ccc(C#N)cc3)CC2)ccc1C [Methyl (2S)-2-[[5-[4-(4-cyanophenyl)piperidine-1-carbonyl]-2-methylphenyl]carbamoylamino]-4-(1H-tetrazol-5-yl)butanoate],do not have IC50s in the range of about 0.001 μM to about 30 μM
3,Cc1ccc(C(=O)N2CCC(c3ccc(C#N)cc3)CC2)cc1NC(=O)N(C)CCNC(=O)C(C)C [N-[2-[[5-[4-(4-cyanophenyl)piperidine-1-carbonyl]-2-methylphenyl]carbamoyl-methylamino]ethyl]-2-methylpropanamide],do not have IC50s in the range of about 0.001 μM to about 30 μM
4,"Cc1ccc(C(=O)N2CCC(c3ccc(C#N)cc3)CC2)cc1NC(=O)N1CCS(=O)(=O)CC1 [N-[5-[4-(4-cyanophenyl)piperidine-1-carbonyl]-2-methylphenyl]-1,1-dioxo-1,4-thiazinane-4-carboxamide]",do not have IC50s in the range of about 0.001 μM to about 30 μM
